Laboratory results: US20240041042A1, “1-(PYRIDYL)-5-AZINYLPYRAZOLE DERIVATIVES, AND THEIR USE FOR CONTROL OF UNDESIRED PLANT GROWTH” (Bayer Aktiengesellschaft, priority 2020, published 2024)
Read-outs that look alike come from different tables or passages of the source.

How the values were obtained:
Format in all cases: in vivo
[1] = system: Amaranthus retroflexus (AMARE); assay: Pre-emergence herbicidal action against AMARE; settings: visual scoring after about 3 weeks vs untreated controls
How it was run: (§1)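 Herbicide applied to soil before seedling emergence, at 600 l/ha spray volume with 0.5% additive and rates up to 320 g/ha. Evaluation: visual percentage effect, about 3 weeks later, greenhouse-grown pots compared with untreated ones.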

Avena fatua (AVEFA) [2] = assay: Post-emergence herbicidal action against AVEFA; settings: 80 g/ha, visual rating about 3 weeks after treatment
How it was run: (§2)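 Doses of 320 g/ha or lower, suffixes a, b and c marking different dosages, were applied post-emergence at the one-leaf stage in 600 l/ha water with 0.5% additive. Damage was assessed visually after about 3 weeks in the greenhouse.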

Setaria viridis (SETVI) [3] = assay: Post-emergence herbicidal action against SETVI; settings: dosage 80 g/ha
How it was run: as §2

Avena fatua (AVEFA) [4] = assay: Pre-emergence herbicidal action against AVEFA; settings: 320 g/ha, visual scoring after about 3 weeks vs untreated controls
How it was run: as §1

Viola tricolor (VIOTR) [5] = assay: Pre-emergence herbicidal action against VIOTR
How it was run: as §1

Setaria viridis (SETVI) [6] = assay: Pre-emergence herbicidal action against SETVI
How it was run: as §1

[7] = system: Alopecurus myosuroides (ALOMY); assay: Post-emergence herbicidal action against ALOMY; settings: 80 g/ha, visual rating about 3 weeks after treatment vs untreated controls (100% = plants have died, 0% = like control plants)
How it was run: as §2

Oryza sativa (ORYSA) [8] = settings: pre-emergence, 80 g/ha, crop plant compatibility, in comparison to untreated controls
How it was run: (§3)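 Scoring: visual, % of untreated control, about 3 weeks after a pre-emergence application to the soil surface. Application used WP or EC formulations diluted in water with 0.5% additive at 600 l/ha; dosage levels are marked by suffixes a, b and c.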

[9] = system: Polygonum convolvulus (POLCO); assay: Pre-emergence herbicidal action against POLCO
How it was run: as §1

Lolium rigidum (LOLRI) [10] = assay: Pre-emergence herbicidal action against LOLRI
How it was run: as §1

[11] = system: Amaranthus retroflexus (AMARE); assay: Post-emergence herbicidal action against AMARE
How it was run: as §2

[12] = system: Alopecurus myosuroides (ALOMY); assay: Pre-emergence herbicidal action against ALOMY; settings: scored visually after about 3 weeks, 100% = plants have died
How it was run: as §1

Oryza sativa (ORYSA) [13] = settings: crop plant compatibility
How it was run: (§4)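 Percent effect on the crop was judged by eye against untreated controls, where 0% means like control and 100% means dead plants. Plants had been sprayed post-emergence at the one-leaf stage and then kept under optimum greenhouse conditions for about 3 weeks.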

Zea mays (ZEAMX) [14] = settings: for Post-emergence action against ZEAMX in % (crop plant compatibility): 20 g/ha, effect in comparison to untreated controls; for Post-emergence action against ZEAMX in %: crop plant compatibility, 80 g/ha, effect vs untreated controls
How it was run: as §4

[15] = system: Matricaria inodora (MATIN); assay: Pre-emergence herbicidal action against MATIN; settings: dosage 320 g/ha
How it was run: as §1

[16] = system: Echinochloa crus-galli (ECHCG); assay: Pre-emergence herbicidal action against ECHCG; settings: dosage 320 g/ha
How it was run: as §1

Lolium rigidum (LOLRI) [17] = assay: Post-emergence herbicidal action against LOLRI; settings: dosage 80 g/ha
How it was run: as §2

[18] = system: Verconica persica (VERPE); assay: Post-emergence herbicidal action against VERPE; settings: 320 g/ha, VERPE
How it was run: as §2

[19] = system: Matricaria inodora (MATIN); assay: Post-emergence herbicidal action against MATIN
How it was run: as §2

Zea mays (ZEAMX) [20] = settings: pre-emergence, 80 g/ha, crop plant compatibility, in comparison to untreated controls
How it was run: as §3

[21] = system: Digitaria sanguinalis (DIGSA); assay: Pre-emergence herbicidal action against DIGSA
How it was run: as §1

[22] = system: Triticum aestivum (TRZAS); settings: crop plant compatibility, 80 g/ha, effect vs untreated controls
How it was run: as §4

Viola tricolor (VIOTR) [23] = assay: Post-emergence herbicidal action against VIOTR
How it was run: as §2

[24] = system: Pharbitis purpurea (PHBPU); assay: Pre-emergence herbicidal action against PHBPU; settings: dosage 320 g/ha
How it was run: as §1

[25] = system: Digitaria sanguinalis (DIGSA); assay: Post-emergence herbicidal action against DIGSA; settings: 80 g/ha, visual rating about 3 weeks after treatment
How it was run: as §2

[26] = system: Echinochloa crus-galli (ECHCG); assay: Post-emergence herbicidal action against ECHCG; settings: dosage 80 g/ha
How it was run: as §2

[27] = system: Verconica persica (VERPE); assay: Pre-emergence herbicidal action against VERPE; settings: dosage 320 g/ha
How it was run: as §1

[28] = 80 g/ha, effect in comparison to untreated controls

Compound	Pre-emergence action against AMARE in % ([1]; 320 g/ha) [%]	Pre-emergence action against AVEFA in % (Avena fatua (AVEFA) [4]) [%]	Pre-emergence action against VIOTR in % (Viola tricolor (VIOTR) [5]; 320 g/ha, Viola tricolor) [%]	Pre-emergence action against SETVI in % (Setaria viridis (SETVI) [6]; dosage 320 g/ha) [%]	Post-emergence action against ALOMY in % [7] [%]	Pre-emergence action against POLCO in % ([9]; dosage 320 g/ha) [%]	Pre-emergence action against LOLRI in % (Lolium rigidum (LOLRI) [10]; dosage 80 g/ha) [%]	Pre-emergence action against LOLRI in % (Lolium rigidum (LOLRI) [10]; dosage 320 g/ha) [%]	Pre-emergence action against ALOMY ([12]; 80 g/ha) [%]	Pre-emergence action against ALOMY ([12]; 320 g/ha) [%]	Post-emergence action against ORYSA in % (Oryza sativa (ORYSA) [13]; [28]) [%]	Post-emergence action against ZEAMX in % (crop plant compatibility) (Zea mays (ZEAMX) [14]) [%]	Pre-emergence action against MATIN in % [15] [%]	Pre-emergence action against ECHCG in % [16] [%]	Pre-emergence action against AMARE in % ([1]; 80 g/ha) [%]	Pre-emergence action against ZEAMX in % (Zea mays (ZEAMX) [20]) [%]	Pre-emergence action against DIGSA in % ([21]; dosage 320 g/ha) [%]	Post-emergence action against ZEAMX in % (Zea mays (ZEAMX) [14]) [%]	further results
CCOC(=O)C(C)Oc1nn(-c2ccccn2)c(-c2ccc(F)nc2)c1C(F)(F)F (centres unmarked) [Example I-107]	100	80	100	100	90	80	80	100	90	90	10	20	90	100	–	–	–	–	Post-emergence action against AVEFA in % (Avena fatua (AVEFA) [2]): 90%; Post-emergence action against SETVI in % (Setaria viridis (SETVI) [3]): 80%; Pre-emergence action against ORYSA in % (Oryza sativa (ORYSA) [8]): 10%; Post-emergence action against AMARE in % ([11]; 80 g/ha, visual rating about 3 weeks after treatment vs untreated controls (100% = plants have died, 0% = like control plants)): 80%; Post-emergence action against ORYSA in % (Oryza sativa (ORYSA) [13]; 20 g/ha, effect vs untreated controls): 0%; Post-emergence action against LOLRI in % (Lolium rigidum (LOLRI) [17]): 80%
COC(=O)CCOC(=O)COc1nn(-c2ccccn2)c(-c2ccc(Cl)nc2)c1Cl [Example I-243]	90	–	–	–	–	–	–	–	–	–	0	–	–	–	80	10	80	0	Post-emergence action against VERPE in % [18]: 80%; Post-emergence action against MATIN in % ([19]; dosage 320 g/ha): 80%; Post-emergence action against AMARE in % ([11]; 320 g/ha, visual rating about 3 weeks after treatment): 80%; Post-emergence action against TRZAS in % [22]: 20%; Post-emergence action against ORYSA in % (Oryza sativa (ORYSA) [13]; 320 g/ha, effect in comparison to untreated controls): 10%; Post-emergence action against VIOTR in % (Viola tricolor (VIOTR) [23]; 320 g/ha): 80%
N#CCOC(=O)COc1nn(-c2ncccc2F)c(-c2ccc(F)nc2)c1Br [Example I-30]	100	100	100	100	90	90	90	100	100	100	–	20	90	100	100	10	100	20	Pre-emergence action against PHBPU in % [24]: 90%; Post-emergence action against MATIN in % ([19]; dosage 80 g/ha): 90%; Pre-emergence action against VIOTR in % (Viola tricolor (VIOTR) [5]; dosage 80 g/ha): 90%; Post-emergence action against DIGSA in % [25]: 90%; Pre-emergence action against SETVI in % (Setaria viridis (SETVI) [6]; dosage 80 g/ha): 90%; Post-emergence action against ECHCG in % [26]: 80%; Pre-emergence action against POLCO in % ([9]; dosage 80 g/ha): 80%; Pre-emergence action against VERPE in % [27]: 90%; Pre-emergence action against DIGSA in % ([21]; 80 g/ha, visual scoring after about 3 weeks vs untreated controls): 100%; Post-emergence action against VIOTR in % (Viola tricolor (VIOTR) [23]; 80 g/ha): 80%
